We go through 58 molecules from ChEMBL document CHEMBL3785006, “Discovery of 2-Indole-acylsulfonamide Myeloid Cell Leukemia 1 (Mcl-1) Inhibitors Using Fragment-Based Methods” (J Med Chem, 2016).

The target of assay [1] is T1, Induced myeloid leukemia cell differentiation protein Mcl-1 (Homo sapiens, UniProt Q07820).
In assay [2] the target is T1, Induced myeloid leukemia cell differentiation protein Mcl-1. This is another data set of the same source.
The target is the same in assay [3]. The source holds these as a separate data set.
For another assay, the target named is Bcl-2-like protein 1 (Homo sapiens, UniProt Q07817).
Bcl-2-like protein 1, sequence (Q07817 whole entry): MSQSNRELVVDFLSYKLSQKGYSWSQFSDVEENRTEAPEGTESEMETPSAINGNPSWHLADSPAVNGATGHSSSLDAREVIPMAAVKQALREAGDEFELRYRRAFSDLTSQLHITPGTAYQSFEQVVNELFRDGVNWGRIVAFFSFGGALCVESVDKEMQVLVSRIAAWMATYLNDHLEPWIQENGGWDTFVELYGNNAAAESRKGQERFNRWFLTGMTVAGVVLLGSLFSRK

Structures are written as SMILES.

T1 sequence (Q07820 whole entry): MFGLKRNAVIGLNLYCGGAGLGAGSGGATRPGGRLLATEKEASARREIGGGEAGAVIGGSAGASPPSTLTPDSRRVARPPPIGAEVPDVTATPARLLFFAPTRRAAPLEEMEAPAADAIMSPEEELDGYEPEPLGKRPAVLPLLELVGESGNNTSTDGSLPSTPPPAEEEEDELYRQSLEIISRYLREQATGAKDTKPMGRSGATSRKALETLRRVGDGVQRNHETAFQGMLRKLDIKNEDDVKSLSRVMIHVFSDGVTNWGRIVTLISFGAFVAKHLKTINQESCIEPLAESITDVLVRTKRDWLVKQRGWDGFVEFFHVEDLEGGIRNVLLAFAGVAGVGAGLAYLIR

One may read the Ki as the dissociation constant of the complex between target and ligand, obtained from inhibition or displacement. A higher Ki goes with weaker binding. In assay [1], `Cc1cc(OCCCc2c(C(=O)NS(=O)(=O)CCNC(=O)c3cc(-c4ccccc4O)n[nH]3)[nH]c3cc(Cl)ccc23)cc(C)c1Cl` showed a Ki of 308 nM.

In assay [1], `Cc1cc(OCCCc2c(C(=O)NS(=O)(=O)CCNC(=O)C3CCCCC3)[nH]c3cc(Cl)ccc23)cc(C)c1Cl` gave an inhibition constant (Ki) of 55 nM. This Ki is about 5.6-fold lower than that of the molecule before.

As for `Cc1cc(OCCCc2c(C(=O)NS(=O)(=O)c3cccc(CNC(=O)CC(C)C)c3)[nH]c3c(-c4c(C)nn(C)c4C)c(Cl)ccc23)cc(C)c1Cl`, the Ki was less than 10 nM in assay [1], 92 nM in assay [2], 5.6 nM in assay [3] and 1570 nM on Bcl-2-like protein 1.

Consider `Cc1cc(OCCCc2c(C(=O)NS(=O)(=O)CCNC(=O)c3cccc(C(F)(F)F)c3)[nH]c3cc(Cl)ccc23)cc(C)c1Cl`, for which the inhibition constant Ki in assay [1] is 79 nM.

In turn, `Cc1cc(OCCCc2c(C(=O)NS(=O)(=O)CCNC(=O)CC(C)C)[nH]c3cc(Cl)ccc23)cc(C)c1Cl` returned a Ki in assay [1] of 10 nM.

As a reminder, the IC50 is the point on the concentration scale where inhibition reaches its midpoint. In assay [3], `Cc1cc(OCCCc2c(C(=O)NS(=O)(=O)c3ccc(C(=O)O)o3)[nH]c3c(-c4c(C)nn(C)c4C)c(Cl)ccc23)cc(C)c1Cl` showed a 50% inhibitory concentration (IC50) of 2.1 nM and a Ki of 0.78 nM.

Take `Cc1cc(OCCCc2c(C(=O)NS(=O)(=O)c3cccc(CNC(=O)c4cccc(C(F)(F)F)c4)c3)[nH]c3c(-c4c(C)nn(C)c4C)c(Cl)ccc23)cc(C)c1Cl`: the Ki in assay [1] is less than 10 nM; in assay [2] it was 78 nM; in assay [3], 7 nM; on Bcl-2-like protein 1, 12900 nM.

In assay [1], `Cc1cc(OCCCc2c(C(=O)NS(=O)(=O)CCNS(=O)(=O)C3CCCCC3)[nH]c3ccccc23)cc(C)c1Cl` returned an inhibition constant (Ki) of 251 nM.

Take `Cc1cc(OCCCc2c(C(=O)NS(=O)(=O)c3cccc(CNC(=O)C(C)C)c3)[nH]c3c(-c4c(C)nn(C)c4C)c(Cl)ccc23)cc(C)c1Cl`: the inhibition constant Ki was less than 10 nM in assay [1], 54 nM in assay [2], 16 nM in assay [3] and greater than 50000 nM on Bcl-2-like protein 1.

As to `Cc1cc(OCCCc2c(C(=O)NS(=O)(=O)CCNC(=O)[C@@H]3Cc4ccccc4N3)[nH]c3ccccc23)cc(C)c1Cl`, in assay [1], the Ki was 193 nM.

Consider `Cc1cc(OCCCc2c(C(=O)NS(=O)(=O)CCNC(=O)c3ccc(F)cc3)[nH]c3ccccc23)cc(C)c1Cl`, for which, in assay [1], the affinity, expressed as Ki, was 117 nM.

With `Cc1cc(OCCCc2c(C(=O)NS(=O)(=O)CCNC(=O)c3ccc4[nH]ccc4c3)[nH]c3ccccc23)cc(C)c1Cl`, the inhibitory constant (Ki) in assay [1] amounted to 269 nM.

Turning to `Cc1cc(OCCCc2c(C(=O)NS(=O)(=O)CCNC(=O)C(C)C)[nH]c3cc(Cl)ccc23)cc(C)c1Cl`, in assay [1], the Ki came to 66 nM.

The molecule `Cc1cc(OCCCc2c(C(=O)NS(=O)(=O)CCNC(=O)c3ccc4cc[nH]c4c3)[nH]c3ccccc23)cc(C)c1Cl` showed a Ki in assay [1] of 278 nM.

`Cc1cc(OCCCc2c(C(=O)NS(=O)(=O)CCNC(=O)c3ccoc3)[nH]c3cc(Cl)ccc23)cc(C)c1Cl`: in assay [1], the Ki came to 19 nM. Compared with the last molecule, the Ki is about 15-fold lower.

`CC(=O)NCCS(=O)(=O)NC(=O)c1[nH]c2cc(Cl)ccc2c1CCCOc1cc(C)c(Cl)c(C)c1` returned an inhibitory constant (Ki) in assay [1] of 209 nM.

The molecule `Cc1cc(OCCCc2c(C(=O)NS(=O)(=O)CCNC(=O)c3cccn3Cc3ccccc3)[nH]c3ccccc23)cc(C)c1Cl` had a Ki in assay [1] of 148 nM.

Take `CS(=O)(=O)NC(=O)c1[nH]c2cc(Cl)ccc2c1CCCOc1cccc2ccccc12`: the Ki in assay [1] turned out to be 231 nM.

For `CC(=O)NCCS(=O)(=O)NC(=O)c1[nH]c2ccccc2c1CCCOc1cc(C)c(Cl)c(C)c1`, in assay [1], the Ki is 656 nM. This Ki is about 2.8-fold higher than that of the molecule before.

Consider `Cc1cc(OCCCc2c(C(=O)NS(=O)(=O)CCNC(=O)c3cccn3-c3ccccc3)[nH]c3ccccc23)cc(C)c1Cl`, for which, in assay [1], affinity was put at a Ki of 139 nM.

The molecule `Cc1cc(OCCCc2c(C(=O)NS(=O)(=O)CCNC(=O)[C@@H]3Cc4ccccc4N3)[nH]c3cc(Cl)ccc23)cc(C)c1Cl` displayed a Ki in assay [1] of 46 nM. Compared with the last molecule, the Ki is about 3-fold lower.

In assay [1], `Cc1ccncc1-c1cccc2c(CCCOc3cc(C)c(Cl)c(C)c3)c(C(=O)NS(=O)(=O)c3ccccc3)[nH]c12` gave a Ki of 36 nM. This Ki and that of the molecule before are within 1.5-fold of each other.

In assay [1], `Cc1cc(OCCCc2c(C(=O)NS(=O)(=O)c3ccccc3)[nH]c3c(-c4cccnc4C)cccc23)cc(C)c1Cl` came in with a Ki of 14 nM.

On to `Cc1cc(OCCCc2c(C(=O)NS(C)(=O)=O)[nH]c3ccccc23)cc(C)c1Cl`, for which the affinity in assay [1], expressed as Ki, was 655 nM. This Ki is about 47-fold higher than that of the molecule before.

In turn, `Cc1cc(OCCCc2c(C(=O)NS(=O)(=O)CCNC(=O)c3ccco3)[nH]c3cc(Cl)ccc23)cc(C)c1Cl` had a Ki in assay [1] of 53 nM.

The molecule `Cc1cc(OCCCc2c(C(=O)NS(=O)(=O)CCNC(=O)c3ccccc3)[nH]c3ccccc23)cc(C)c1Cl` yielded a Ki in assay [1] of 430 nM.

As to `Cc1cc(OCCCc2c(C(=O)NS(=O)(=O)c3ccccc3)[nH]c3c(-c4c(C)n[nH]c4C)cccc23)cc(C)c1Cl`, the Ki in assay [1] was less than 10 nM; in assay [2], 517 nM.

In assay [1], `Cc1cc(OCCCc2c(C(=O)NS(=O)(=O)CCNC(=O)CC3CCCCC3)[nH]c3ccccc23)cc(C)c1Cl` came in with a Ki of 1100 nM.

Turning to `Cc1cc(OCCCc2c(C(=O)NS(=O)(=O)c3ccccc3)[nH]c3c(-c4c(C)n[nH]c4C)c(Cl)ccc23)cc(C)c1Cl`, the Ki is less than 10 nM in assay [1] and 147 nM in assay [2].

As for `CCC(=O)NCCS(=O)(=O)NC(=O)c1[nH]c2cc(Cl)ccc2c1CCCOc1cc(C)c(Cl)c(C)c1`, the affinity in assay [1] corresponds to a Ki of 87 nM.

`Cc1cc(OCCCc2c(C(=O)NS(=O)(=O)CCNC(=O)[C@H]3Cc4ccccc4N3)[nH]c3cc(Cl)ccc23)cc(C)c1Cl` had a Ki in assay [1] of 28 nM.

In the case of `Cc1cc(OCCCc2c(C(=O)NS(=O)(=O)CCNC(=O)Cc3cn(C)c4ccccc34)[nH]c3ccccc23)cc(C)c1Cl`, the Ki in assay [1] turned out to be 298 nM.

Take `Cc1cc(OCCCc2c(C(=O)NS(=O)(=O)CCCNC3CCCCC3)[nH]c3ccccc23)cc(C)c1Cl`: in assay [1], the affinity, expressed as Ki, was 1020 nM. Against the preceding molecule, the Ki is about 3.4-fold higher.

On to `Cc1cc(OCCCc2c(C(=O)NS(=O)(=O)CCNC(=O)c3ccccc3F)[nH]c3ccccc23)cc(C)c1Cl`, for which the Ki in assay [1] was found to be 336 nM.

Consider `Cc1cc(OCCCc2c(C(=O)NS(=O)(=O)c3ccc(C(=O)NCc4ccccc4)o3)[nH]c3c(-c4c(C)nn(C)c4C)c(Cl)ccc23)cc(C)c1Cl`, for which the Ki in assay [1] was less than 10 nM; in assay [2], 84 nM; in assay [3], 2.4 nM; at Bcl-2-like protein 1 it was greater than 50000 nM.

In turn, `Cc1cc(OCCCc2c(C(=O)NS(=O)(=O)CCNC(=O)c3cccc(F)c3)[nH]c3ccccc23)cc(C)c1Cl` showed a Ki in assay [1] of 100 nM.

Take `Cc1cc(OCCCc2c(C(=O)NS(=O)(=O)c3ccccc3)[nH]c3c(-c4cccnc4C)c(Cl)ccc23)cc(C)c1Cl`: the Ki in assay [1] is less than 10 nM; in assay [2] it was 146 nM; in assay [3], 18 nM.

For the molecule `Cc1cc(OCCCc2c(C(=O)NS(=O)(=O)CCNC(=O)C3CCCCC3)[nH]c3ccccc23)cc(C)c1Cl`, the inhibitory constant (Ki) in assay [1] was determined as 118 nM.

In assay [1], `Cc1cc(OCCCc2c(C(=O)NS(=O)(=O)CCNC(=O)C(F)(F)F)[nH]c3cc(Cl)ccc23)cc(C)c1Cl` gave a Ki of 116 nM.

For the molecule `Cc1cc(OCCCc2c(C(=O)NS(=O)(=O)c3cccc(CNC(=O)c4ccoc4)c3)[nH]c3c(-c4c(C)nn(C)c4C)c(Cl)ccc23)cc(C)c1Cl`, the Ki is less than 10 nM in assay [1], 69 nM in assay [2], 2.9 nM in assay [3] and 1400 nM on Bcl-2-like protein 1.

`CC(=O)NCc1cccc(S(=O)(=O)NC(=O)c2[nH]c3c(-c4c(C)nn(C)c4C)c(Cl)ccc3c2CCCOc2cc(C)c(Cl)c(C)c2)c1`: the Ki in assay [1] was less than 10 nM; in assay [2], 42 nM; in assay [3], 11.1 nM; on Bcl-2-like protein 1, 9070 nM.

As to `Cc1cc(OCCCc2c(C(=O)NS(=O)(=O)CCNC(=O)c3cc4ccccc4o3)[nH]c3ccccc23)cc(C)c1Cl`, in assay [1], the Ki amounted to 311 nM.

`Cc1cc(OCCCc2c(C(=O)NS(=O)(=O)CCOc3ccccc3)[nH]c3ccccc23)cc(C)c1Cl` gave an inhibition constant (Ki) in assay [1] of 322 nM.

Consider `Cc1cc(OCCCc2c(C(=O)NS(=O)(=O)c3ccccc3)[nH]c3c(-c4c(C)nn(C)c4C)c(Cl)ccc23)cc(C)c1Cl`, for which the Ki was less than 10 nM in assay [1], 64 nM in assay [2] and 17 nM in assay [3].

`Cc1cc(OCCCc2c(C(=O)NS(=O)(=O)CCNC(=O)c3ccccc3C(F)(F)F)[nH]c3cc(Cl)ccc23)cc(C)c1Cl` gave a Ki in assay [1] of 18 nM.

Consider `Cc1cc(OCCCc2c(C(=O)NS(C)(=O)=O)[nH]c3cc(Cl)ccc23)cc(C)c1Cl`, for which, in assay [1], the Ki is 209 nM.

On to `Cc1cc(OCCCc2c(C(=O)NS(=O)(=O)CCNC(=O)c3cccn3C)[nH]c3ccccc23)cc(C)c1Cl`, for which, in assay [1], the Ki stood at 90 nM. Compared with the last molecule, the Ki is about 2.3-fold lower.

Consider `CCC(CC)C(=O)NCCS(=O)(=O)NC(=O)c1[nH]c2cc(Cl)ccc2c1CCCOc1cc(C)c(Cl)c(C)c1`, for which the inhibitory constant (Ki) in assay [1] amounted to 16 nM.

`Cc1cc(OCCCc2c(C(=O)NS(=O)(=O)CCNC(=O)c3ccc(C(F)(F)F)cc3)[nH]c3cc(Cl)ccc23)cc(C)c1Cl` had a Ki in assay [1] of 119 nM.

Turning to `Cc1cc(OCCCc2c(C(=O)NS(=O)(=O)c3ccco3)[nH]c3cc(Cl)ccc23)cc(C)c1Cl`, the affinity in assay [1], expressed as Ki, was 116 nM.

`Cc1cc(OCCCc2c(C(=O)NS(=O)(=O)c3ccncc3)[nH]c3ccccc23)cc(C)c1Cl` came in with a Ki in assay [1] of 335 nM.

As for `Cc1cc(OCCCc2c(C(=O)NS(=O)(=O)c3cccc(CNC(=O)c4cccn4C)c3)[nH]c3c(-c4c(C)nn(C)c4C)c(Cl)ccc23)cc(C)c1Cl`, the inhibitory constant (Ki) in assay [1] is less than 10 nM; in assay [2], 91 nM; in assay [3], 10 nM; on Bcl-2-like protein 1 it was greater than 50000 nM.

In the case of `Cc1cc(OCCCc2c(C(=O)NS(=O)(=O)c3ccccc3)[nH]c3cc(Cl)ccc23)cc(C)c1Cl`, in assay [1], the Ki amounted to 91 nM.

Regarding `Cc1cc(OCCCc2c(C(=O)NS(=O)(=O)c3ccccc3)[nH]c3c(-c4cccnc4)cccc23)cc(C)c1Cl`, in assay [1], the Ki was 202 nM.

In turn, `O=C(NS(=O)(=O)CCNC(=O)C1CCCCC1)c1[nH]c2cc(Cl)ccc2c1CCCOc1cccc2ccccc12` yielded a Ki in assay [1] of 374 nM.

In the case of `Cc1cc(OCCCc2c(C(=O)NS(=O)(=O)c3cccc(CNC(=O)c4ccccc4C(F)(F)F)c3)[nH]c3c(-c4c(C)nn(C)c4C)c(Cl)ccc23)cc(C)c1Cl`, the inhibition constant (Ki) in assay [1] was less than 10 nM; in assay [2], 80 nM; in assay [3] it was 5 nM; at Bcl-2-like protein 1, 4470 nM.

`Cc1cc(OCCCc2c(C(=O)NS(=O)(=O)CCNC(=O)c3ccc[nH]3)[nH]c3cc(Cl)ccc23)cc(C)c1Cl`: in assay [1], affinity was put at a Ki of 782 nM.

`Cc1cc(OCCCc2c(C(=O)NS(=O)(=O)CCNC(=O)c3cn(C)c4ccccc34)[nH]c3ccccc23)cc(C)c1Cl`: the Ki in assay [1] was determined as 432 nM.
